# Read-outs that look alike come from different tables or passages of the source.
# How the values were obtained:
# [1] = tested on: carregeenin oedema; experiment: Anti-carregeenin oedema activity (Winter method); format: in vivo, male rats
# Description: Anti-carregeenin oedema activity [According to the Winter method [Proc. Soc. exp. Biol. Med., 111 544 (1962)], a test compound suspended in the solution including 0.3 % of Tween-80 (a trade name of Atlas Powder Co., U.S.A.) was orally administered to a group of 5 male rats weighing 120 to 140 g.]
# *1 Maximum oedema inhibition.
# *2 Average oedema inhibition from 2 hrs to 5 hrs after the administration
# [2] = tested on: acetic acid-induced writhing; experiment: Analgesic activity by the acetic acid-induced writhing test (K. Takagi et al. method); format: in vivo, ddY male mice
# Description: Analgesic activity by the acetic acid-induced writhing test [According to the K. Takagi et al. method [Journal of the Pharmaceutical Society of Japan, 78 553 (1958)], a test compound suspended in the solution including 0.5 % of Tween-80 was orally administered to a group of 8 ddY male mice weighing 20 to 24 g.]
# [3] = toxicity test (LD50); conditions: mouse, in vivo, mice
# Description: Therefore, the sym.-triazines of this invention are useful as an anti-inflammatory agent and analgesics.
# [4] = Mus musculus, po, read-out: ED50
Molecule,"Inhibition of oedema, Peak (maximum oedema inhibition) ([1]; 70 mg/kg p.o.) [%]","Inhibition of oedema, time of Peak ([1]; 70 mg/kg p.o.) [h]","Inhibition of oedema, Mean (average oedema inhibition from 2 hrs to 5 hrs after the administration) ([1]; 70 mg/kg p.o.) [%]","Inhibition of oedema, Peak (maximum oedema inhibition) ([1]; 200 mg/kg p.o.) [%]","Inhibition of oedema, time of Peak ([1]; 200 mg/kg p.o.) [h]","Inhibition of oedema, Mean (average oedema inhibition from 2 hrs to 5 hrs after the administration) ([1]; 200 mg/kg p.o.) [%]","Inhibition of oedema, Peak (maximum oedema inhibition) ([1]; 500 mg/kg p.o.) [%]","Inhibition of oedema, time of Peak ([1]; 500 mg/kg p.o.) [h]","Inhibition of oedema, Mean (average oedema inhibition from 2 hrs to 5 hrs after the administration) ([1]; 500 mg/kg p.o.) [%]",Inhibition (writhing) ([2]; 100 mg/kg p.o.) [%],"ED50 [2, 4] [mg/kg]",Inhibition (writhing) ([2]; 33.3 mg/kg p.o.) [%],other results
"COC(=O)Nc1nc(OC)nc(OC)n1 [No. 1, methyl 2,4-dimethoxy-sym.-triazinylcarbamate]",51.0,2,44.6,64.0,2,49.5,61.4,2,52.8,16.3,> 300,–,Inhibition (writhing) ([2]; 300 mg/kg p.o.): 34.7%
"COC(=S)Nc1nc(OC)nc(OC)n1 [No. 3, methyl 2,4-dimethoxy-sym.-triazinylthioncarbamate]",37.2,2,24.7,68.8,2,46.7,78.3,2,61.0,77.2,8,69.4,"Inhibition (writhing) ([2]; 3.7 mg/kg p.o.): 11.9%; Inhibition (writhing) ([2]; 11.1 mg/kg p.o.): 67.9%; LD50 ([3]; ip, read-out: LD50 i.p.): 500 mg/kg; LD50 ([3]; po, read-out: LD50 p.o.): 1050 mg/kg"
CCOC(=S)Nc1nc(OC)nc(OC)n1 [compound 4],23.9,2,21.8,45.9,2,35.4,64.5,2,50.6,96.9,6.6,94.4,"Inhibition (writhing) ([2]; 3.7 mg/kg p.o.): 7.6%; Inhibition (writhing) ([2]; 11.1 mg/kg p.o.): 89.4%; LD50 ([3]; ip, read-out: LD50 i.p.): 490 mg/kg; LD50 ([3]; po, read-out: LD50 p.o.): 1020 mg/kg"
CCOC(=S)Nc1nc(O)nc(O)n1 [compound 10],–,–,–,–,–,–,13.0,2,–,–,–,–,–
"ethyl 2,4-dihydroxy-sym.-triazinylthioncarbamate [No. 10]",–,–,–,–,–,–,17.5,2,–,–,–,–,–
"ethyl 2,4-dimethoxy-sym.-triazinyldithiocarbamate [No. 7]",–,–,–,–,–,–,38.0,2,18.1,68.4,–,16.5,ED50 ([2]; p.o.): 67.5 mg/kg
"ethyl 2,4-dimethoxy-sym.-triazinylthiolcarbamate [No. 11]",–,–,–,–,–,–,–,–,–,2.9,–,–,Inhibition (writhing) ([2]; 300 mg/kg p.o.): 50.3%; ED50 ([2]; p.o.): 300 mg/kg
"methyl 2,4-diethoxy-sym.-triazinylthioncarbamate [No. 8]",–,–,–,–,–,–,16.3,3,–,–,–,–,–
"methyl 2,4-diphenoxy-sym.-triazinylthioncarbamate [No. 9]",–,–,–,27.1,5,17.6,–,2,–,–,–,–,"Inhibition of oedema, Mean (average oedema inhibition from 2 hrs to 5 hrs after the administration) ([1]; 500 mg/kg p.o., listed as 7): 27.6%; Inhibition of oedema, Mean (average oedema inhibition from 2 hrs to 5 hrs after the administration) ([1]; 500 mg/kg p.o., listed as 8): 23.5%; Inhibition of oedema, Peak (maximum oedema inhibition) ([1]; 500 mg/kg p.o., listed as 7): 37.4%; Inhibition of oedema, Peak (maximum oedema inhibition) ([1]; 500 mg/kg p.o., listed as 8): 32.2%"

# Reference: US3972882A, “Sym.-triazine carbamates” (Toyama Chemical Co., Ltd., priority 1973, dated 1976)
